# PMC10318822, “Phase 1 dose-escalation study to evaluate the safety, tolerability, pharmacokinetics, and anti-tumor activity of FCN-159 in adults with neurofibromatosis type 1-related unresectable plexiform neurofibromas” (BMC Medicine, 2023)
# Tested on: adult patients with NF1-related PN
# Test: Phase I dose-escalation: DLT, MTD, RP2D and drug-related TEAEs (CTCAE v5.0)
# Method: This is a multicenter, open-label, single-arm, non-randomized, phase I dose-escalation trial to evaluate the safety, tolerability, pharmacokinetic (PK), and anti-tumor activity of orally administered FCN-159 in adult patients with NF1 (NCT04954001). Phase I commenced with dose escalation in adult patients following a standard 3 + 3 design (Supplementary Table S1) to determine the maximum tolerated dose (MTD) of FCN-159 administered daily under fasting conditions (defined as no food or drink 1 h before and 2 h after each dose) in 28-day cycles. Study drug was dispensed at the study site and patient adherence was monitored by the records of drug dispensation and return. Patients were on treatment until PD, death, patient's voluntary withdrawal from study treatment, or study termination. The study was followed for 2 years after the last patient in. The starting dose was 4 mg, escalating in cohorts of at least three evaluable patients at 6 mg, 8 mg, and 12 mg until the MTD was determined. The starting dose in this study was determined based on available data from a phase 1a, first-in-human study of FCN-159 in patients with advanced NRAS ^mut+ melanoma at the time of study design. […] Dose expansion at a likely RP2D level enrolled approximately six patients. The highest dose level with a dose-limiting toxicity (DLT) incidence rate ≤ 33% (0/3 or 1/6 patients) was to be considered the MTD. If patients experienced grade ≥ 3 and/or unacceptable toxic events that were considered as at least possibly related to the study treatment, the study treatment was discontinued and supportive treatment was given in accordance with local treatment routines. If the toxicity returned to grade ≤ 2 within 28 days after the occurrence, and there was no progression on patients’ conditions or the investigator believed that patients could benefit from the study treatment, the original dose could be maintained or reduced after discussion with medical monitor. After completion of the dose escalation part of the study, PK, efficacy, safety, and tolerability data were analyzed to select the RP2D.
# Primary endpoints of the study were the DLT incidence rate, MTD, and RP2D. Secondary endpoints included other safety assessments, imaging tumor response (complete response [CR], PR, stable disease [SD], or progressive disease [PD]), and PK parameters of FCN-159. Adverse events were graded per CTCAE v5.0.
# All patients underwent a complete medical history, physical examination, Eastern Cooperative Oncology Group (ECOG) assessment, and laboratory analysis of test results. Drug-related TEAEs, serious adverse events (SAEs), TEAEs of grade ≥ 3 toxicity, and TEAEs leading to drug discontinuation were reviewed on an ongoing basis. Efficacy was assessed by radiologic scans and clinical assessment. Tumor assessments per Response Evaluation in Neurofibromatosis Schwannomatosis criteria were performed by investigators using MRI volumetric analysis every 4 cycles within the first 2 years (± 7 days) and every 6 cycles after 2 years (± 14 days) until PD, death, patient's voluntary withdrawal from study treatment, or study termination. MRI sequences of […], T1- and T2-weighted sequences were chosen and the software of Extended Brilliance Workspace, SIGNA Premier and uExceed were used for MRI volumetric analysis. The same software was used for all tumor assessments at baseline and subsequent assessed timepoints of the same patient. Pain was assessed by an 11-point numerical rating scale (NRS-11).
# The sample size for the dose-escalation study was estimated to be 24 based on the 3 + 3 method. Safety was analyzed in patients who received at least one dose of FCN-159 and had at least one safety assessment. DLT was assessed in the DLT analysis set, defined as patients who were enrolled in the dose-escalation study and met the DLT evaluation criteria.
smiles,measurement,setting,value
Cn1c(=O)c(F)c(Nc2ccc(I)cc2F)c2c(=O)n(C3CC3)nc(-c3cccc(NS(=O)(=O)C4CC4)c3)c21 [FCN-159],Drug-related TEAE: Urticaria,12 mg (N = 4),1 (25.0) n (%)
same,Drug-related TEAE: Vision blurred,12 mg (N = 4),0 n (%)
same,Drug-related TEAE: Visual acuity reduced,12 mg (N = 4),0 n (%)
same,Drug-related TEAE: pH urine decreased,12 mg (N = 4),0 n (%)
same,Drug-related TEAE: pH urine increased,12 mg (N = 4),0 n (%)
same,Subjects with any drug-related TEAE,12 mg (N = 4),4 (100) n (%)
same,Patients with DLT (grade 3 folliculitis),"12 mg, 3 of 3 patients",100%
same,Drug-related TEAE: Abdominal pain,Total (N = 19),1 (5.3) n (%)
same,Drug-related TEAE: Acne,Total (N = 19),1 (5.3) n (%)
same,Drug-related TEAE: Acne pustular,Total (N = 19),1 (5.3) n (%)
same,Drug-related TEAE: Alanine aminotransferase increased,Total (N = 19),2 (10.5) n (%)
same,Drug-related TEAE: Albumin globulin ratio decreased,Total (N = 19),1 (5.3) n (%)
same,Drug-related TEAE: Alopecia,Total (N = 19),5 (26.3) n (%)
same,Drug-related TEAE: Amylase increased,Total (N = 19),1 (5.3) n (%)
same,Drug-related TEAE: Anemia,Total (N = 19),1 (5.3) n (%)
same,Drug-related TEAE: Aortic dilatation,Total (N = 19),1 (5.3) n (%)
same,Drug-related TEAE: Aspartate aminotransferase increased,Total (N = 19),2 (10.5) n (%)
same,Drug-related TEAE: Asthenia,Total (N = 19),1 (5.3) n (%)
same,Drug-related TEAE: Beta globulin decreased,Total (N = 19),1 (5.3) n (%)
same,Drug-related TEAE: Beta globulin increased,Total (N = 19),2 (10.5) n (%)
same,Drug-related TEAE: Blood alkaline phosphatase increased,Total (N = 19),6 (31.6) n (%)
same,Drug-related TEAE: Blood bilirubin increased,Total (N = 19),5 (26.3) n (%)
same,Drug-related TEAE: Blood creatine phosphokinase increased,Total (N = 19),3 (15.8) n (%)
same,Drug-related TEAE: Blood fibrinogen increased,Total (N = 19),4 (21.1) n (%)
same,Drug-related TEAE: Blood lactate dehydrogenase increased,Total (N = 19),4 (21.1) n (%)
same,Drug-related TEAE: Blood pressure increased,Total (N = 19),1 (5.3) n (%)
same,Drug-related TEAE: Blood urea increased,Total (N = 19),4 (21.1) n (%)
same,Drug-related TEAE: Blood uric acid increased,Total (N = 19),2 (10.5) n (%)
same,Drug-related TEAE: Breath odor,Total (N = 19),3 (15.8) n (%)
same,Drug-related TEAE: Capillary disorder,Total (N = 19),1 (5.3) n (%)
same,Drug-related TEAE: Constipation,Total (N = 19),3 (15.8) n (%)
same,Drug-related TEAE: Decreased appetite,Total (N = 19),1 (5.3) n (%)
same,Drug-related TEAE: Dermatitis acneiform,Total (N = 19),1 (5.3) n (%)
same,Drug-related TEAE: Diarrhea,Total (N = 19),1 (5.3) n (%)
same,Drug-related TEAE: Drug eruption,Total (N = 19),5 (26.3) n (%)
same,Drug-related TEAE: Dyslipidemia,Total (N = 19),2 (10.5) n (%)
same,Drug-related TEAE: Ejection fraction decreased,Total (N = 19),1 (5.3) n (%)
same,Drug-related TEAE: Electrocardiogram QT prolonged,Total (N = 19),1 (5.3) n (%)
same,Drug-related TEAE: Electrocardiogram abnormal,Total (N = 19),2 (10.5) n (%)
same,Drug-related TEAE: Epistaxis,Total (N = 19),2 (10.5) n (%)
same,Drug-related TEAE: Folliculitis,Total (N = 19),9 (47.4) n (%)
same,Drug-related TEAE: Functional gastrointestinal disorder,Total (N = 19),1 (5.3) n (%)
same,Drug-related TEAE: Gamma-glutamyltransferase increased,Total (N = 19),1 (5.3) n (%)
same,Drug-related TEAE: Gingival pain,Total (N = 19),1 (5.3) n (%)
same,Drug-related TEAE: Hyperlipidemia,Total (N = 19),1 (5.3) n (%)
same,Drug-related TEAE: Hypertension,Total (N = 19),1 (5.3) n (%)
same,Drug-related TEAE: Hypoalbuminemia,Total (N = 19),1 (5.3) n (%)
same,Drug-related TEAE: Hypocalcemia,Total (N = 19),2 (10.5) n (%)
same,Drug-related TEAE: Hypophosphatemia,Total (N = 19),1 (5.3) n (%)
same,Drug-related TEAE: Hypoproteinemia,Total (N = 19),1 (5.3) n (%)
same,Drug-related TEAE: Immunoglobulins increased,Total (N = 19),4 (21.1) n (%)
same,Drug-related TEAE: Impetigo,Total (N = 19),1 (5.3) n (%)
same,Drug-related TEAE: Left atrial enlargement,Total (N = 19),1 (5.3) n (%)
same,Drug-related TEAE: Lipoprotein abnormal,Total (N = 19),1 (5.3) n (%)
same,Drug-related TEAE: Malaise,Total (N = 19),1 (5.3) n (%)
same,Drug-related TEAE: Menstrual disorder,Total (N = 19),2 (10.5) n (%)
same,Drug-related TEAE: Mitral valve incompetence,Total (N = 19),4 (21.1) n (%)
same,Drug-related TEAE: Mouth ulceration,Total (N = 19),4 (21.1) n (%)
same,Drug-related TEAE: Muscular weakness,Total (N = 19),1 (5.3) n (%)
same,Drug-related TEAE: Oedema peripheral,Total (N = 19),1 (5.3) n (%)
same,Drug-related TEAE: Pain in extremity,Total (N = 19),1 (5.3) n (%)
same,Drug-related TEAE: Paronychia,Total (N = 19),6 (31.6) n (%)
same,Drug-related TEAE: Prealbumin decreased,Total (N = 19),1 (5.3) n (%)
same,Drug-related TEAE: Protein urine present,Total (N = 19),5 (26.3) n (%)
same,Drug-related TEAE: Pruritus,Total (N = 19),1 (5.3) n (%)
same,Drug-related TEAE: QRS axis abnormal,Total (N = 19),4 (21.1) n (%)
same,Drug-related TEAE: Rash,Total (N = 19),3 (15.8) n (%)
same,Drug-related TEAE: Sinus arrhythmia,Total (N = 19),1 (5.3) n (%)
same,Drug-related TEAE: Sinus bradycardia,Total (N = 19),1 (5.3) n (%)
same,Drug-related TEAE: Sinusitis,Total (N = 19),1 (5.3) n (%)
same,Drug-related TEAE: Skin exfoliation,Total (N = 19),1 (5.3) n (%)
same,Drug-related TEAE: Specific gravity urine increased,Total (N = 19),5 (26.3) n (%)
same,Drug-related TEAE: Stomatitis,Total (N = 19),7 (36.8) n (%)
same,Drug-related TEAE: Supraventricular extrasystoles,Total (N = 19),1 (5.3) n (%)
same,Drug-related TEAE: Total bile acids increased,Total (N = 19),3 (15.8) n (%)
same,Drug-related TEAE: Tricuspid valve incompetence,Total (N = 19),3 (15.8) n (%)
same,Drug-related TEAE: Urinary occult blood positive,Total (N = 19),3 (15.8) n (%)
same,Drug-related TEAE: Urinary sediment present,Total (N = 19),1 (5.3) n (%)
same,Drug-related TEAE: Urinary tract infection,Total (N = 19),1 (5.3) n (%)
same,Drug-related TEAE: Urine ketone body present,Total (N = 19),2 (10.5) n (%)
same,Drug-related TEAE: Urobilinogen urine increased,Total (N = 19),5 (26.3) n (%)
same,Drug-related TEAE: Urticaria,Total (N = 19),1 (5.3) n (%)
same,Drug-related TEAE: Vision blurred,Total (N = 19),1 (5.3) n (%)
same,Drug-related TEAE: Visual acuity reduced,Total (N = 19),1 (5.3) n (%)
same,Drug-related TEAE: pH urine decreased,Total (N = 19),3 (15.8) n (%)
same,Drug-related TEAE: pH urine increased,Total (N = 19),2 (10.5) n (%)
same,Subjects with any drug-related TEAE,Total (N = 19),19 (100) n (%)
same,Patients with grade 3 drug-related folliculitis,all dose levels,five
same,Patients with grade 3 drug-related paronychia,all dose levels,four
same,Patients with FCN-159-related TEAEs,"all dose levels, n = 19",100%
same,Patients with grade 3 study-drug-related TEAEs,"all dose levels, nine of 19 patients",47.4%
same,Blurred vision,"all patients, n = 1/19",5.3%
same,Reduced visual acuity,"all patients, n = 1/19",5.3%
same,Drug-related TEAE mouth ulceration,"all patients, n = 4/19",21.1%
same,Drug-related TEAE increased blood alkaline phosphatase,"all patients, n = 6/19",31.6%
same,Drug-related TEAE paronychia,"all patients, n = 6/19",31.6%
same,Drug-related TEAE stomatitis,"all patients, n = 7/19",36.8%
same,Drug-related TEAE folliculitis,"all patients, n = 9/19",47.4%
same,Drug-related gastrointestinal disorders,"all patients, twelve patients",63.2%
same,Patients with eye disorders,"all patients, two patients",10.5%
same,Recommended phase II dose (RP2D),daily,8 mg
same,Maximum tolerated dose (MTD),"daily, 28-day cycles, fasting",8 mg
same,Deaths during the study,in vivo,No patients died
same,Dose reduction,mainly due to grade 3 paronychia and folliculitis,42.1%
same,Grade 3 drug-related TEAE in patients receiving doses below the MTD,"paronychia, 6 mg dose",Only one
same,SAE during treatment that led to drug withdrawal,"rhegmatogenous retinal detachment, present at baseline, considered unrelated to the study drug",One patient
